Experimental data from US20210130401A1, “PEPTIDOMIMETIC INHIBITORS OF THE WDR5-MLL INTERACTION” (THE REGENTS OF THE UNIVERSITY OF MICHIGAN, priority 2017, published 2021).
Where two headings read alike, the source gives them in different places. Values belong to the compound of their own block, whether it stands above or below them. Starred links: 1 amine or outer side, 2 acyl side, 3 side chain; linkers in the order of their positions; H or OH if unused. Positions of bridges follow the written chain, without caps; N, C: chain ends. Non-standard residues stand in square brackets, D forms with d. Residues, ends and D or L forms follow the SMILES beside them. *: point of attachment. dαMeLys(Me) = CN(CCCC[C@@](C)(N[*:1])C(=O)[*:2])[*:3]; dαMeDab = C[C@](CCN[*:3])(N[*:1])C(=O)[*:2]; dPhg(2-OMe) = COc1ccccc1[C@@H](N)C(=O)O; dPhg = N[C@@H](C(=O)O)c1ccccc1; Pyridin(2-yl) = c1ccc(*)nc1; dOrn = NCCC[C@@H](N)C(=O)O; Isobutyryl = CC(C)C(=O)*; Orn = NCCC[C@H](N)C(=O)O; dDap = NC[C@@H](N)C(=O)O; Ac5c = NC1(C(=O)O)CCCC1; Abu = CC[C@H](N)C(=O)O

Key:
[1] = target: T1, WDR5 (Homo sapiens, UniProt P61964); assay: fluorescence polarization (FP) based competitive binding assay to WDR5 protein
T1 construct: N-terminal His-tagged WDR5 protein (residues 24-334), named WDR5Δ23; made in house; host or cells: E. coli Rosetta 2 (DE3)
Procedure: The plates were incubated at room temperature on a shaker for 3h, and then the mP values were measured using the Tecan Infinite M-1000 plate reader (Tecan U.S., Research Triangle Park, N.C.).

[2] = test system: MOLM-13 leukemia cells carrying MLL-AF9 fusion; assay: cell viability assay (WST-8), MOLM-13; type: cell-based; settings: Homo sapiens, MOLM-13, 96 h
[3] = calculated from IC50 by published equation, read-out: Binding Affinity to WDR5 Ki ± SD
[4] = read-out: Binding Affinity to WDR5 IC50 ± SD

Compound: CC[C@@H]1NC(=O)[C@H](CCCNc2ccccn2)NC(=O)[C@](C)(NC(=O)C(C)C)CCNC(=O)[C@@H](c2ccccc2)NC1=O [Cpd. No. 12, N-((3R,6S,9S,12R)-6-ethyl-12-methyl-2,5,8,11-tetraoxo-3-phenyl-9-(3-(pyridin-2-ylamino)propyl)-1,4,7,10-tetraazacyclotetradecan-12-yl)isobutyramide] (Isobutyryl-[dαMeDab][Orn](Pyridin(2-yl))[Abu][dPhg]; lactam 1-C)
- IC50 [1]: 3.25 nM
- Ki [1]: < 1 nM
- IC50 ([2]; read-out: MOLM-13 IC50 (μM)): > 10 µM

Compound: CC[C@@H]1NC(=O)[C@H](CCCNC(=N)N)NC(=O)[C@](C)(NC(=O)C(C)C)CCCCN(C)C(=O)[C@@H](c2ccccc2)NC1=O [Cpd. No. 65, N-((3R,6S,9S,12R)-6-ethyl-9-(3-guanidinopropyl)-1,12-dimethyl-2,5,8,11-tetraoxo-3-phenyl-1,4,7,10-tetraazacyclohexadecan-12-yl)isobutyramide] (Isobutyryl-[dαMeLys(Me)]R[Abu][dPhg]; lactam 1-C)
- IC50 [1]: 1.6 ± 0.3 nM
- Ki [1]: < 1 nM

Compound: CC[C@@H]1NC(=O)[C@H](CCCNC(=N)N)NC(=O)[C@](C)(NC(=O)C(C)C)CCCCN(C)C(=O)[C@@H](c2ccc(Cl)cc2)NC1=O [Cpd. No. 67, N-((3R,6S,9S,12R)-3-(4-chlorophenyl)-6-ethyl-9-(3-guanidinopropyl)-1,12-dimethyl-2,5,8,11-tetraoxo-1,4,7,10-tetraazacyclohexadecan-12-yl)isobutyramide]
- IC50 [1]: 1.5 ± 0.9 nM
- Ki [1]: < 1 nM

- Ki [1, 3]: 242 ± 33 nM
- IC50 [1, 4]: 1190 ± 160 nM
Compound: CC[C@@H]1NC(=O)[C@H](CCCNC(=N)N)NC(=O)[C@H](NC(=O)C(C)C)CNC(=O)[C@@H](c2ccccc2)NC1=O [Cpd. No. 71, N-((3R,6S,9S,12R)-6-ethyl-9-(3-guanidinopropyl)-2,5,8,11-tetraoxo-3-phenyl-1,4,7,10-tetraazacyclotridecan-12-yl)isobutyramide] (Isobutyryl-[dDap]R[Abu][dPhg]; lactam 1-C)

- Ki [1, 3]: 32.9 ± 5.3 nM
- IC50 [1, 4]: 164 ± 26 nM
Compound: CC[C@@H]1NC(=O)[C@H](CCCNC(=N)N)NC(=O)[C@H](NC(=O)C(C)C)CCCNC(=O)[C@@H](c2ccccc2)NC1=O [Cpd. No. 72, N-((3R,6S,9S,12R)-6-ethyl-9-(3-guanidinopropyl)-2,5,8,11-tetraoxo-3-phenyl-1,4,7,10-tetraazacyclopentadecan-12-yl)isobutyramide] (Isobutyryl-[dOrn]R[Abu][dPhg]; lactam 1-C)

- Ki [1, 3]: 60.3 ± 11.9 nM
- IC50 [1, 4]: 298 ± 58 nM
Compound: CC[C@@H]1NC(=O)[C@H](CCCNC(=N)N)NC(=O)[C@H](NC(=O)C(C)C)CCCCNC(=O)[C@@H](c2ccccc2)NC1=O [Cpd. No. 73, N-((3R,6S,9S,12R)-6-ethyl-9-(3-guanidinopropyl)-2,5,8,11-tetraoxo-3-phenyl-1,4,7,10-tetraazacyclohexadecan-12-yl)isobutyramide] (Isobutyryl-[dK]R[Abu][dPhg]; lactam 1-C)

Compound: CC[C@@H]1NC(=O)[C@H](CCCNC(=N)N)NC(=O)[C@](C)(NC(=O)C(C)C)CCNC(=O)[C@@H](c2cccc3ccccc23)NC1=O [Cpd. No. 81, N-((3R,6S,9S,12R)-6-ethyl-9-(3-guanidinopropyl)-12-methyl-3-(naphthalen-1-yl)-2,5,8,11-tetraoxo-1,4,7,10-tetraazacyclotetradecan-12-yl)isobutyramide]
- IC50 ([2]; read-out: MOLM-13 IC50 (μM)): 1.29 µM

Compound: CC[C@@H]1NC(=O)[C@H](CCCNC(=N)N)NC(=O)[C@](C)(NC(=O)C(C)C)CCNC(=O)[C@@H](c2ccccc2Cl)NC1=O [Cpd. No. 83, N-((3R,6S,9S,12R)-3-(2-chlorophenyl)-6-ethyl-9-(3-guanidinopropyl)-12-methyl-2,5,8,11-tetraoxo-1,4,7,10-tetraazacyclotetradecan-12-yl)isobutyramide]
- IC50 ([2]; read-out: MOLM-13 IC50 (μM)): 2.6 µM

Compound: CC(C)C(=O)N[C@]1(C)CCNC(=O)[C@@H](c2ccccc2)NC(=O)C2(CCCC2)NC(=O)[C@H](CCCNC(=N)N)NC1=O [Cpd. No. 86, N-((8S,11R,16R)-8-(3-guanidinopropyl)-11-methyl-7,10,15,18-tetraoxo-16-phenyl-6,9,14,17-tetraazaspiro[4.13]octadecan-11-yl)isobutyramide] (Isobutyryl-[dαMeDab]R[Ac5c][dPhg]; lactam 1-C)
- IC50 ([2]; read-out: MOLM-13 IC50 (μM)): > 10 µM

Compound: CC[C@@H]1NC(=O)[C@H](CCCNC(N)NC)NC(=O)[C@](C)(NC(=O)C(C)C)CCNC(=O)[C@@H](CC2CCCCC2)NC1=O (stereo partly drawn) [Cpd. No. 87, N-((3R,6S,9S,12R)-9-(3-((amino(methylamino)methyl)amino)propyl)-3-(cyclohexylmethyl)-6-ethyl-12-methyl-2,5,8,11-tetraoxo-1,4,7,10-tetraazacyclotetradecan-12-yl)isobutyramide]
- IC50 ([2]; read-out: MOLM-13 IC50 (μM)): 0.46 µM

- IC50 ([2]; Table 2A, 4 days treatment, read-out: MOLM-13 IC50): > 10 µM
Compound: CC[C@H](C)[C@@H]1NC(=O)[C@H](CCCNC(=N)N)NC(=O)[C@](C)(NC(=O)C(C)C)CCNC(=O)[C@@H](c2ccccc2)NC1=O [Cpd. No. 90, N-((3R,6S,9S,12R)-6-((S)-sec-butyl)-9-(3-guanidinopropyl)-12-methyl-2,5,8,11-tetraoxo-3-phenyl-1,4,7,10-tetraazacyclotetradecan-12-yl)isobutyramide] (Isobutyryl-[dαMeDab]RI[dPhg]; lactam 1-C)

Compound: CC[C@@H]1NC(=O)[C@H](CCCNC2=NCC(F)(F)CN2)NC(=O)[C@](C)(NC(=O)C(C)C)CCNC(=O)[C@@H](CC2CCCCC2)NC1=O [Cpd. No. 95, N-((3R,6S,9S,12R)-3-(cyclohexylmethyl)-9-(3-((5,5-difluoro-1,4,5,6-tetrahydropyrimidin-2-yl)amino)propyl)-6-ethyl-12-methyl-2,5,8,11-tetraoxo-1,4,7,10-tetraazacyclotetradecan-12-yl)isobutyramide]
- IC50 ([2]; read-out: MOLM-13 IC50 (μM)): > 10 µM

Compound: CC[C@@H]1NC(=O)[C@H](CCCNC2=NCC(C)(C)CN2)NC(=O)[C@](C)(NC(=O)C(C)C)CCNC(=O)[C@@H](CC2CCCCC2)NC1=O [Cpd. No. 96, N-((3R,6S,9S,12R)-3-(cyclohexylmethyl)-9-(3-((5,5-dimethyl-1,4,5,6-tetrahydxopyrimidin-2-yl)amino)propyl)-6-ethyl-12-methyl-2,5,8,11-tetraoxo-1,4,7,10-tetraazacyclotetradecan-12-yl)isobutyramide]
- IC50 ([2]; read-out: MOLM-13 IC50 (μM)): > 10 µM

Compound: CC[C@@H]1NC(=O)[C@H](CCCNC2=NCC(C)CN2)NC(=O)[C@](C)(NC(=O)C(C)C)CCNC(=O)[C@@H](CC2CCCCC2)NC1=O (stereo partly drawn) [Cpd. No. 97, N-((3R,6S,9S,12R)-3-(cyclohexylmethyl)-6-ethyl-12-methyl-9-(3-((5-methyl-1,4,5,6-tetrahydropyrimidin-2-yl)amino)propyl)-2,5,8,11-tetraoxo-1,4,7,10-tetraazacyclotetradecan-12-yl)isobutyramide]
- IC50 ([2]; read-out: MOLM-13 IC50 (μM)): > 10 µM

Compound: CC[C@@H]1NC(=O)[C@H](CCCNC(=N)N)NC(=O)[C@](C)(NC(=O)C(C)C)CCNC(=O)[C@@H](c2ccccc2OC)NC1=O [Cpd. No. 99, N-((3R,6S,9S,12R)-6-ethyl-9-(3-guanidinopropyl)-3-(2-methoxyphenyl)-12-methyl-2,5,8,11-tetraoxo-1,4,7,10-tetraazacyclotetradecan-12-yl)isobutyramide] (Isobutyryl-[dαMeDab]R[Abu][dPhg(2-OMe)]; lactam 1-C)
- IC50 ([2]; read-out: MOLM-13 IC50 (μM)): 1.6 µM

Compound: CC[C@@H]1NC(=O)[C@H](CCCNC(=N)N)NC(=O)[C@](C)(NC(=O)C(C)C)CCNC(=O)[C@@H](c2ccc(Cl)cc2)NC1=O [Cpd. No. 100, N-((3R,6S,9S,12R)-3-(4-chlorophenyl)-6-ethyl-9-(3-guanidinopropyl)-12-methyl-2,5,8,11-tetraoxo-1,4,7,10-tetraazacyclotetradecan-12-yl)isobutyramide]
- IC50 ([2]; read-out: MOLM-13 IC50 (μM)): 2.2 µM
